Counter-ions that a name gives are not always drawn.

For the test, the target named is human KV7.2/KV7.3 (Homo sapiens (Human), UniProt O43525+O43526). Nature of the test: Potassium flux assay (IPG-2 AM dye). It counts as cell-based. The note with it: TREX HEK 293 or HEK 293 cells expressing human KV7.2/KV7.3; arithmetic mean values. The gist of the method: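 EC50 from 16 concentrations (2-fold dilutions, top 30 μM), scaled between DMSO baseline and a known KV7.x modulator maximum. Signal is IPG-2 AM fluorescence (ex 530/em 558 nm) after 10 mM KCl challenge buffer addition, following 20 min room-temperature compound exposure of HEK 293 or TREX HEK 293 cells stably expressing human KV7.2/KV7.3.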

On to `Clc1ccc(Nc2nccc3cc(OCCCCCn4cncn4)ccc23)cn1` [Example 168, 6-((5-(1H-1,2,4-triazol-1-yl)pentyl)oxy)-N-(6-chloropyridin-3-yl)isoquinolin-1-amine], for which the EC50 was in the range of 1000 to 10000 nM.
`Cc1ncc(Nc2nccc3cc(OC(C)c4cnn(C)c4)ccc23)cn1` (centres unmarked) [Example 169, 6-(1-(1-methyl-1H-pyrazol-4-yl)ethoxy)-N-(2-methylpyrimidin-5-yl)isoquinolin-1-amine]: the EC50 lay in the range of 1000 to 10000 nM.
Next, `C[C@@H](Oc1ccc2c(Nc3ccc(Cl)nc3)nccc2c1)c1cnn(C)c1` [Example 171, (R)—N-(6-chloropyridin-3-yl)-6-(1-(1-methyl-1H-pyrazol-4-yl)ethoxy)isoquinolin-1-amine]: less than 1000 nM; `C[C@H](Oc1ccc2c(Nc3ccc(Cl)nc3)nccc2c1)c1cnn(C)c1` [Example 172, (S)—N-(6-chloropyridin-3-yl)-6-(1-(1-methyl-1H-pyrazol-4-yl)ethoxy)isoquinolin-1-amine]: less than 1000 nM; `Cc1nn(C)cc1[C@@H](C)Oc1ccc2c(Nc3ccc(Cl)nc3)nccc2c1` [Example 174, (R)—N-(6-chloropyridin-3-yl)-6-(1-(1,3-dimethyl-1H-pyrazol-4-yl)ethoxy)isoquinolin-1-amine]: 1000 to 10000 nM.
As to `Cc1nn(C)cc1[C@H](C)Oc1ccc2c(Nc3ccc(Cl)nc3)nccc2c1` [Example 175, (S)—N-(6-chloropyridin-3-yl)-6-(1-(1,3-dimethyl-1H-pyrazol-4-yl)ethoxy)isoquinolin-1-amine], the half-maximal effective concentration (EC50) fell in the range of 1000 to 10000 nM.
Regarding `CC(C)C(C)(N)COc1ccc2c(Nc3ccc(Cl)nc3)nccc2c1` (centres unmarked) [Example 176, 6-(2-amino-2,3-dimethylbutoxy)-N-(6-chloropyridin-3-yl)isoquinolin-1-amine hydrochloride], the EC50 fell in the range of 10000 to 30000 nM.
`COC1(COc2ccc3c(Nc4ccc(Cl)nc4)nccc3c2)CC1` [Example 177, N-(6-chloropyridin-3-yl)-6-((1-methoxycyclopropyl)methoxy)isoquinolin-1-amine]: the EC50 was less than 1000 nM.
For `COC1(COc2ccc3c(Nc4cnc(C)nc4)nccc3c2)CC1` [Example 178, 6-((1-methoxycyclopropyl)methoxy)-N-(2-methylpyrimidin-5-yl)isoquinolin-1-amine], the EC50 is 1000 to 10000 nM.
Next, `CC1(COc2ccc3c(Nc4ccc(Cl)nc4)nccc3c2)CC1` [Example 179, N-(6-chloropyridin-3-yl)-6-((1-methylcyclopropyl)methoxy)isoquinolin-1-amine]: 1000 to 10000 nM; `Clc1ccc(Nc2nccc3cc(OCCC4CC4)ccc23)cn1` [Example 180, N-(6-chloropyridin-3-yl)-6-(2-cyclopropylethoxy)isoquinolin-1-amine]: 10000 to 30000 nM; `FC1(COc2ccc3c(Nc4ccc(Cl)nc4)nccc3c2)CC1` [Example 181, N-(6-chloropyridin-3-yl)-6-((1-fluorocyclopropyl)methoxy)isoquinolin-1-amine]: less than 1000 nM.
As for `Clc1ccc(Nc2nccc3cc(OCc4cncnc4)ccc23)cn1` [Example 182, N-(6-chloropyridin-3-yl)-6-(pyrimidin-5-ylmethoxy)isoquinolin-1-amine], the 50% effective concentration (EC50) is less than 1000 nM.
Next, `Clc1ccc(Nc2nccc3cc(OCCc4ccccn4)ccc23)cn1` [Example 183, N-(6-chloropyridin-3-yl)-6-(2-(pyridin-2-yl)ethoxy)isoquinolin-1-amine]: 1000 to 10000 nM; `FC(F)(F)OCCOc1ccc2c(Nc3ccc(Cl)nc3)nccc2c1` [Example 184, N-(6-chloropyridin-3-yl)-6-(2-(trifluoromethoxy)ethoxy)isoquinolin-1-amine]: 1000 to 10000 nM.
For the compound `Clc1ccc(Nc2nccc3cc(OCCCn4ccnc4)ccc23)cn1` [Example 185, 6-(3-(1H-imidazol-1-yl)propoxy)-N-(6-chloropyridin-3-yl)isoquinolin-1-amine], the EC50 is 1000 to 10000 nM.
Next, `COc1ncc(COc2ccc3c(Nc4ccc(Cl)nc4)nccc3c2)cn1` [Example 186, N-(6-chloropyridin-3-yl)-6-((2-methoxypyrimidin-5-yl)methoxy)isoquinolin-1-amine]: 1000 to 10000 nM; `COc1cc(Nc2nccc3cc(OCC4(C)COC4)ccc23)cnc1C` [Example 187, N-(5-methoxy-6-methylpyridin-3-yl)-6-((3-methyloxetan-3-yl)methoxy)isoquinolin-1-amine formate]: less than 1000 nM.
Regarding `CCn1ccc(COc2ccc3c(Nc4ccc(Cl)nc4)nccc3c2)n1` [Example 188, N-(6-chloropyridin-3-yl)-6-((1-ethyl-1H-pyrazol-3-yl)methoxy)isoquinolin-1-amine formate], the EC50 fell in the range of 1000 to 10000 nM.
With `Cc1ncc(Nc2nccc3cc(OCC4(F)CC4)ccc23)cn1` [Example 189, 6-((1-fluorocyclopropyl)methoxy)-N-(2-methylpyrimidin-5-yl)isoquinolin-1-amine], the EC50 was less than 1000 nM.
Next, `Cc1ccc(Nc2nccc3cc(OCC4(F)CC4)ccc23)cn1` [Example 190, 6-((1-fluorocyclopropyl)methoxy)-N-(6-methylpyridin-3-yl)isoquinolin-1-amine]: 1000 to 10000 nM.
Take `CS(=O)(=O)CCCOc1ccc2c(Nc3ccc(Cl)nc3)nccc2c1` [Example 191, N-(6-chloropyridin-3-yl)-6-(3-(methylsulfonyl)propoxy)isoquinolin-1-amine]: the EC50 lay within 1000 to 10000 nM.
Next, `Clc1ccc(Nc2nccc3cc(OCc4ccncc4)ccc23)cn1` [Example 192, N-(6-chloropyridin-3-yl)-6-(pyridin-4-ylmethoxy)isoquinolin-1-amine]: less than 1000 nM.
Next, `Clc1ccc(Nc2nccc3cc(OCc4ncccn4)ccc23)cn1` [Example 193, N-(6-chloropyridin-3-yl)-6-(pyrimidin-2-ylmethoxy)isoquinolin-1-amine]: 1000 to 10000 nM.
As for `Cc1ccc(COc2ccc3c(Nc4ccc(Cl)nc4)nccc3c2)cn1` [Example 194, N-(6-chloropyridin-3-yl)-6-((6-methylpyridin-3-yl)methoxy)isoquinolin-1-amine], the EC50 was less than 1000 nM.
Next, `Clc1ccc(Nc2nccc3cc(OCc4cccnc4)ccc23)cn1` [Example 195, N-(6-chloropyridin-3-yl)-6-(pyridin-3-ylmethoxy)isoquinolin-1-amine]: less than 1000 nM.
Next, `Cn1cc(COc2ccc3c(Nc4ccc(Cl)nc4)nccc3c2)cn1` [Example 196, N-(6-chloropyridin-3-yl)-6-((1-methyl-1H-pyrazol-4-yl)methoxy)isoquinolin-1-amine]: less than 1000 nM; `Clc1ccc(Nc2nccc3cc(OC4CCOCC4)ccc23)cn1` [Example 197, N-(6-chloropyridin-3-yl)-6-((tetrahydro-2H-pyran-4-yl)oxy)isoquinolin-1-amine]: less than 1000 nM; `Cn1ccnc1COc1ccc2c(Nc3ccc(Cl)nc3)nccc2c1` [Example 198, N-(6-chloropyridin-3-yl)-6-((1-methyl-1H-imidazol-2-yl)methoxy)isoquinolin-1-amine]: 1000 to 10000 nM.
For the compound `Cc1ncc(Nc2nccc3cc(OCc4ccncc4)ccc23)cn1` [Example 199, N-(2-methylpyrimidin-5-yl)-6-(pyridin-4-ylmethoxy)isoquinolin-1-amine], the EC50 lay in the range of 1000 to 10000 nM.
In the case of `Cc1ccc(Nc2nccc3cc(OCc4ccncc4)ccc23)cn1` [Example 200, N-(6-methylpyridin-3-yl)-6-(pyridin-4-ylmethoxy)isoquinolin-1-amine], the EC50 fell in the range of 1000 to 10000 nM.
As to `Clc1ccc(Nc2nccc3cc(OCCN4CCOCC4)ccc23)cn1` [Example 201, N-(6-chloropyridin-3-yl)-6-(2-morpholinoethoxy)isoquinolin-1-amine], the EC50 was 1000 to 10000 nM.
Turning to `Clc1ncc(Nc2nccc3cc(OCc4ccncc4)ccc23)cn1` [Example 202, N-(2-chloropyrimidin-5-yl)-6-(pyridin-4-ylmethoxy)isoquinolin-1-amine], the EC50 was less than 1000 nM.
Next, `Cn1ccc(COc2ccc3c(Nc4cnc(Cl)nc4)nccc3c2)n1` [Example 203, N-(2-chloropyrimidin-5-yl)-6-((1-methyl-1H-pyrazol-3-yl)methoxy)isoquinolin-1-amine]: less than 1000 nM.
Next, `Cc1cn(C)nc1COc1ccc2c(Nc3ccc(Cl)nc3)nccc2c1` [Example 204, N-(6-chloropyridin-3-yl)-6-((1,4-dimethyl-1H-pyrazol-3-yl)methoxy)isoquinolin-1-amine]: 1000 to 10000 nM; `Cc1ncc(Nc2nccc3cc(OCc4cnn(C)c4)ccc23)cn1` [Example 205, 6-((1-methyl-1H-pyrazol-4-yl)methoxy)-N-(2-methylpyrimidin-5-yl)isoquinolin-1-amine]: less than 1000 nM; `Cc1ncc(Nc2nccc3cc(OCc4ccn(C)n4)ccc23)cn1` [Example 206, 6-((1-methyl-1H-pyrazol-3-yl)methoxy)-N-(2-methylpyrimidin-5-yl)isoquinolin-1-amine]: 1000 to 10000 nM.
Next, `N#CC1(COc2ccc3c(Nc4cnc(Cl)nc4)nccc3c2)CC1` [Example 207, 1-(((1-((2-chloropyrimidin-5-yl)amino)isoquinolin-6-yl)oxy)methyl)cyclopropane-1-carbonitrile]: less than 1000 nM.
For `N#CC1(COc2ccc3c(Nc4cnc(Cl)nc4)nccc3c2)COC1` [Example 208, 3-(((1-((2-chloropyrimidin-5-yl)amino)isoquinolin-6-yl)oxy)methyl)oxetane-3-carbonitrile], the EC50 is less than 1000 nM.
Next, `CC1(C)CC(COc2ccc3c(Nc4ccc(Cl)nc4)nccc3c2)O1` (centres unmarked) [Example 209, N-(6-chloropyridin-3-yl)-6-((4,4-dimethyloxetan-2-yl)methoxy)isoquinolin-1-amine]: 1000 to 10000 nM; `CC1(COc2ccc3c(Nc4ccc(Cl)nc4)nccc3c2)COC1` [Example 210, N-(6-chloropyridin-3-yl)-6-((3-methyloxetan-3-yl)methoxy)isoquinolin-1-amine]: less than 1000 nM.

A word on the EC50: it is the concentration giving half of the maximal effect.

These data come from US20240101531A1, “PYRIDINAMINE DERIVATIVES AND THEIR USE AS POTASSIUM CHANNEL MODULATORS” (Xenon Pharmaceuticals Inc., priority 2022, published 2024).
